For the assay, the target named is T1, recombinant human POP (Homo sapiens, UniProt P48147).
T1 construct: purchased USBiological, MA
T1 sequence (P48147 1-710): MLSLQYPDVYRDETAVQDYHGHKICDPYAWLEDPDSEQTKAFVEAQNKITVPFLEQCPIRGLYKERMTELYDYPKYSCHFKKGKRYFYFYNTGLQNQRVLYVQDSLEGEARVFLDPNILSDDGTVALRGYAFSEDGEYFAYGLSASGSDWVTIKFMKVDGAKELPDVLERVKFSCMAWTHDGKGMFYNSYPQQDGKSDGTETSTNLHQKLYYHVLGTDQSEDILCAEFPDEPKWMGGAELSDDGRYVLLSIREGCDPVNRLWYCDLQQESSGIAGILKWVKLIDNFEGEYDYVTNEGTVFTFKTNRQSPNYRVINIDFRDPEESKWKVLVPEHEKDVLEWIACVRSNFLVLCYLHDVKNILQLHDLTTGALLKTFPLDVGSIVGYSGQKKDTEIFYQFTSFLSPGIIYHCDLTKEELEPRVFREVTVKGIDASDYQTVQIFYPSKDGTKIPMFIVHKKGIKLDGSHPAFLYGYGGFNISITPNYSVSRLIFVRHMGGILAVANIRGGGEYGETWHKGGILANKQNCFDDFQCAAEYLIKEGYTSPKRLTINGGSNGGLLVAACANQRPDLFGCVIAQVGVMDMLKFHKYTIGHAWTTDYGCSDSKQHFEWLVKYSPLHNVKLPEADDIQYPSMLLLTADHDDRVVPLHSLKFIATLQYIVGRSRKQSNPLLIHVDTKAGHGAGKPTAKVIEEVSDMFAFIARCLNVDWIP
As to the kind of experiment: POP enzyme inhibition colorimetric assay (recombinant human POP). The format is biochemical. The following applies: 0.04 mg/ml; read-out: inhibition against human POP. The protocol: FIG. 3 illustrates the inhibition activity of FGS03 against Flavobacterium and recombinant human POP. FGS03 is tested at final concentrations of 0.02 mg/ml and 0.04 mg/ml respectively. Positive control is PE Inhibitor II, Calbiochem, USA. Each sample is tested in triplicate. Data represented as mean value with standard deviation, n=3.
The POP inhibitory activity of compound was evaluated using an enzyme inhibition assay. A colorimetric assay was set up using Flavobacterium and recombinant human POP enzymes. The POP enzyme solutions obtained from Flavobacterium (0.5 U mL^−1 giving 0.0416 units per well) and human (USBiological, MA with working concentration 0.006 mg/ml) were added to the 96-well plates containing sample extracts and phosphate buffer (100 mM, pH 7.0). The reaction was initiated with the addition of enzyme substrate, Z-Gly-Pro-4-nitroanilide (2 mM in 40% dioxane) and incubated at 30° C. for 15 minutes. Stopper buffer (2 M acetate buffer, pH 4.0 with 10% Triton-X) was added to stop the enzyme reaction. The released p-nitroanilide was determined colorimetrically with a plate reader at 414 nm. The inhibition activity was calculated using the formula:
[formula] • where blank=control without the inhibitor • OD=change in optical density during the assay.

In general, inhibition refers to the relative decrease from the control value, in per cent.

Structures are written as SMILES.

For `CCCCCCCCCCCc1cc(O)cc(O[C@H]2O[C@@H](C(=O)O)[C@@H](O)[C@H](O)[C@H]2O)c1C(=O)O` [FGS03, (2R,3S,4S,5R,6R)-6-(2-carboxy-5-hydroxy-3-undecylphenoxy)-3,4,5-trihydroxytetrahydro-2H-pyran-2-carboxylic acid], the inhibition at 40 µg/mL was found to be 80%.
